# Laboratory results taken from article PMC6151598, “Soluble Epoxide Hydrolase Inhibitory Activity of Components Isolated from Apios americana Medik” (Molecules : A Journal of Synthetic Chemistry and Natural …, 2017).
# Values joined by “and” are separate entries in the source; they are usually repeats but may differ in a detail not shown here. Equal entries are not always repeated.
# Tests used:
# [1] = system: androgen receptors; design: method as in PMID 23402539, PMID 26806328; details: cited from earlier work
# [2] = biological target: T1, soluble epoxide hydrolase (sEH) (Homo sapiens, UniProt P34913); assay: sEH inhibition assay (fluorometric, PHOME substrate); assay type: biochemical; details: for IC50: concentrations 6.2 to 100 μM, triplicate, read-out: IC50, inhibitory activity on sEH; for Inhibitory ratio on sEH: tested at 100 μM, % of the control value
# T1 construct: purchased Cayman (Ann Arbor, MI, USA) 10011669
# T1 sequence (P34913 1-555): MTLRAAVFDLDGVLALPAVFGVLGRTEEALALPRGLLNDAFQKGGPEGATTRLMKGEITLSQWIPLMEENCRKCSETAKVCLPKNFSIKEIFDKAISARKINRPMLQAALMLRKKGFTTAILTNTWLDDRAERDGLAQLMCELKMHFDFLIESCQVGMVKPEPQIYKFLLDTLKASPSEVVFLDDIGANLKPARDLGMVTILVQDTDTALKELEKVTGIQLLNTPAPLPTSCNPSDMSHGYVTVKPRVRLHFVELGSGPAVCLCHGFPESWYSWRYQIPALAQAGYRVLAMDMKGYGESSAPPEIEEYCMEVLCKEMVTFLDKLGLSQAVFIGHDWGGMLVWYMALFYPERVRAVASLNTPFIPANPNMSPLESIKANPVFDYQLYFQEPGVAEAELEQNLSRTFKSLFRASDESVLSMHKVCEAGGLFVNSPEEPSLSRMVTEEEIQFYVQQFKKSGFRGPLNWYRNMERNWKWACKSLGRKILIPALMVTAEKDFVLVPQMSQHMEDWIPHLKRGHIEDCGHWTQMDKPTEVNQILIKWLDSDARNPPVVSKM
# Experimental: The sEH assay was performed as described previously. Briefly, 130 µL of sEH in 25.0 mM Bis-Tris-HCl buffer (pH 7.0) and 20.0 µL of the compounds (1–0.06 mM concentration) diluted in MeOH, were added in 96-well plate, to which 50.0 µL of 20.0 µM PHOME was added in the mixture. After initiating the enzyme reaction at 37 °C, the products by hydrolysis of the substrate were monitored at excitation and emission of 330 and 465 nm for one hour. Inhibitory activity (%) = 100 − [(C40 − C0) − (S40 − S0)/(C40 − C0)] × 100 (1) where C40 and S40 were the fluorescence of the control and inhibitor, respectively, after 40 min, S0 and C0 is the fluorescence of inhibitor and control, respectively, at 0 min.
# [3] = system: estrogen receptors; design: method as in PMID 23402539, PMID 26806328; details: cited from earlier work
# [4] = biological target: T1, soluble epoxide hydrolase (sEH); assay: sEH enzyme kinetics (Lineweaver–Burk and Dixon plots); assay type: biochemical; details: for Binding mode (inhibition type): Lineweaver–Burk plot
Binding mode (inhibition type) [4],SMILES,Blocking of [3H]-dihydrotestosterone binding with androgen receptors [1],IC50 [2],Inhibitory ratio on sEH [2],Binding activity with estrogen receptors [3],other results
,"O=c1c(-c2ccc(O)cc2O)coc2cc(O[C@@H]3O[C@H](CO[C@@H]4O[C@H](CO)[C@@H](O)[C@H](O)[C@H]4O)[C@@H](O)[C@H](O)[C@H]3O)cc(O)c12 [Compound 7, 2′-hydroxygenistein-7-O-gentibioside]",blocked the binding,,,,
,"O=c1c(-c2ccc(O)cc2O)coc2cc(O[C@@H]3O[C@H](CO)C(O)[C@H](O)C3O)cc(O)c12 (some centres unmarked) [Compound 6, 2′-hydroxygenistein-7-O-glucoside]",blocked the binding,,,,
,"O=C(O)c1ccc(O)cc1 [Compound 8, 4-hydroxybenzoic acid]",,69.3 ± 1.9 µM,over 50%,,
,O=c1c(-c2ccc(O)cc2O)coc2cc(O)cc(O)c12 [2′-hydroxygenistein],,,,binding activities,
mixed inhibitor,"O=c1c(-c2ccc(O)cc2)coc2cc(O)cc(O)c12 [Compound 2, genestein]",,,,binding activities,
competitive inhibitor,"COc1cc(O)cc2c1C(=O)C1(O)c3ccc(O)cc3OC1O2 (centres unmarked) [Compound 1, 5-methoxy-2,5,7,4′-tetrahydroxy-coumaronochromone]",,< 50 µM and 43.2 µM,over 50%,,"Ki ([4]; inhibitor 0, 25, 50 μM, substrate 3.1 to 25 μM, read-out: Ki (Dixon plot)): 21 µM"
